Test system: Human erythropoietin (hEPO) levels in sera
Assay: Delivery of hEPO mRNA by intramuscular administration of lipid nanoparticles; serum hEPO by ELISA
Format: in vivo, Mouse (female BALB/cJ)
Conditions: single IM injection of 0.1 μg hEPO mRNA LNP in 30 μL into right gastrocnemius, female BALB/cJ mice, cationic lipids in formulation 1, MC3 in formulation 2; for hEPO 6 Hr (ng/mL) Mean: 6 hours post dose; for hEPO 24 Hr (ng/mL) Mean: 24 hours post dose
Protocol: Lipid nanoparticle formulations of Table 3 were prepared by Process A. All of the lipid nanoparticle formulations comprised hEPO mRNA and the different lipids (Cationic Lipid: DMG-PEG2000: Cholesterol: DOPE/DSPC) in the mol % ratios specified in Table 3.
The cationic lipids of the present invention were evaluated with lipid nanoparticle formulation 1. MC3 was evaluated with lipid nanoparticle formulation 2, which is a typical MC3 formulation.
In summary, lipid screening studies were conducted with female BALB/cJ mice 6-8 weeks of age. Mice were dosed with 0.1 μg in 30 μL of LNPs by a single intramuscular (IM) injection into the gastrocnemius leg muscle. Blood samples were taken 6 and 24 hours post injection and hEPO levels were measured in the blood serum of the mice using an ELISA assay according to the manufacture's protocol. WO2022/099003 A1 also describes an in vivo assay for intramuscular administration (e.g. on page 46, paragraph [00206]).
Treatment Regimen: On Day 1, animals from Groups 1-13 were dosed via intramuscular injection while under light isoflurane anesthesia according to the study design table above. Animals in Groups 1-13 were injected with EPO mRNA LNPs in the right leg only. Group 1 animals received MC3 control. The cationic lipid MC3 is the current gold standard for in vivo delivery of e.g. siRNA (see WO2010/144740).
Interim Sample Collections: Interim whole blood (^˜50 μL) was collected by tail snip or saphenous vein at 6 and 24 hours post dose administration (±5%). Blood samples were collected into serum separator tubes, allowed to clot at room temperature for at least 10 minutes, centrifuged at ambient temperature at minimum 1000 g for 10 minutes and the serum was extracted. All serum samples were stored at nominally −70° C. until analysis hEPO by the Testing Facility. The results of the EPO analysis were included in the Data Submission.
Terminal Blood Collections: Whole blood was collected via cardiac puncture into serum separator tube, allowed to clot at room temperature for at least 10 minutes, centrifuged at ambient temperature at minimum 1000 g for 10 minutes and the serum was extracted. Serum samples were stored at nominally −70° C. until analyzed for hEPO by the Test Facility.
ELISA Assay: Human erythropoietin (hEPO) levels in sera samples were determined by ELISA kit (R&D systems, Cat #DEP-00) according to the manufactory instruction and the results were included in the Data Submission. The “shaker” protocol was used. The serum samples were diluted between 1:40 and 1:100.

Compound	hEPO 6 Hr (ng/mL) Mean [ng/mL]	hEPO 24 Hr (ng/mL) Mean [ng/mL]
CCC(CC)COC(=O)CCCCCCC(O)CN(CCCCC(=O)OCCN1CCN(CCSSCCCCN(CC(O)CCCCC(=O)OCC(CC)CC)CC(O)CCCCC(=O)OCC(CC)CC)CC1)CC(O)CCCCCCC(=O)OCC(CC)CC (centres unmarked) [Compound 51, Bis(2-ethylbutyl) 9,9′-((5-(2-(4-(2-((4-(bis(7-(2-ethylbutoxy)-2-hydroxy-7-oxoheptyl)amino)-butyl)disulfaneyl)ethyl)piperazin-1-yl)ethoxy)-5-oxopentyl)azanediyl)bis(8-hydroxynonanoate)]	16.39	9.03
CCCCOC(=O)CCCCCCC(O)CN(CCCC(=O)OCCN1CCN(CCSSCCCN(CC(O)CCCCCCC(=O)OCC(CC)CC)CC(O)CCCCCCC(=O)OCC(CC)CC)CC1)CC(O)CCCCCCC(=O)OCCCC (centres unmarked) [Compound 42, Dibutyl 9,9′-((5-(2-(4-(2-((4-(bis(9-(2-ethylbutoxy)-2-hydroxy-9-oxononyl)amino)propyl)disulfaneyl)ethyl)piperazin-1-yl)ethoxy)-4-oxobutyl)azanediyl)bis(8-hydroxynonanoate)]	9.07	3.06
CCC(CC)COC(=O)CCCCCCC(O)CN(CCCCSSCCN1CCN(CCOC(=O)CCCN(CC(O)CCCCC(=O)OCC(CC)CC)CC(O)CCCCC(=O)OCC(CC)CC)CC1)CC(O)CCCCCCC(=O)OCC(CC)CC (centres unmarked) [Compound 57, Bis(2-ethylbutyl) 9,9′-((4-((2-(4-(2-((4-(bis(7-(2-ethylbutoxy)-2-hydroxy-7-oxoheptyl)amino)butanoyl)oxy)ethyl)piperazin-1-yl)ethyl)disulfaneyl)butyl)azanediyl)bis(8-hydroxynonanoate)]	13.33	8.19
CCCCOC(=O)CCCCCCC(O)CN(CCCCC(=O)OCCN1CCN(CCSSCCCN(CC(O)CCCCC(=O)OC(C)C)CC(O)CCCCC(=O)OC(C)C)CC1)CC(O)CCCCCCC(=O)OCCCC (centres unmarked) [Compound 78]	7.05	3.30
CCCCC/C=C\C/C=C\CCCCCCCCC(CCCCCCCC/C=C\C/C=C\CCCCC)OC(=O)CCCN(C)C [MC3, reference compound]	3.94	2.44
CCC(CC)COC(=O)CCCCCCC(O)CN(CCCSSCCN1CCN(CCOC(=O)CCCN(CC(O)CCCCC(=O)OCCC(C)C)CC(O)CCCCC(=O)OCCC(C)C)CC1)CC(O)CCCCCCC(=O)OCC(CC)CC (centres unmarked) [Compound 45, Bis(2-ethylbutyl) 9,9′-((3-((2-(4-(2-((4-(bis(2-hydroxy-7-(isopentyloxy)-7-oxoheptyl)amino)-butanoyl)oxy)ethyl)piperazin-1-yl)ethyl)disulfaneyl)propyl)azanediyl)bis(8-hydroxynonanoate)]	8.33	3.99
CCCCOC(=O)CCCCCCC(O)CN(CCCSSCCN1CCN(CCOC(=O)CCCCN(CC(O)CCCCCCC(=O)OCC(CC)CC)CC(O)CCCCCCC(=O)OCC(CC)CC)CC1)CC(O)CCCCCCC(=O)OCCCC (centres unmarked) [Compound 6, Dibutyl 9,9′-((3-((2-(4-(2-((5-(bis(9-(2-ethylbutoxy)-2-hydroxy-9-oxononyl)amino)-pentanoyl)oxy)ethyl)piperazin-1-yl)ethyl)disulfaneyl)propyl)azanediyl)bis(8-hydroxynonanoate)]	8.72	8.90
CCC(CC)COC(=O)CCCCC(O)CN(CCCSSCCN1CCN(CCOC(=O)CCCN(CC(O)CCCCC(=O)OCC(CC)CC)CC(O)CCCCC(=O)OCC(CC)CC)CC1)CC(O)CCCCC(=O)OCC(CC)CC (centres unmarked) [Compound 92, Bis(2-ethylbutyl) 7,7′-((3-((2-(4-(2-((4-(bis(7-(2-ethylbutoxy)-2-hydroxy-7-oxoheptyl)amino)butanoyl)oxy)ethyl)piperazin-1-yl)ethyl)disulfaneyl)propyl)azanediyl)bis(6-hydroxyheptanoate)]	13.11	5.75
CCCCOC(=O)CCCCCCC(O)CN(CCCCSSCCN1CCN(CCOC(=O)CCCCN(CC(O)CCCCCCC(=O)OCC(CC)CC)CC(O)CCCCCCC(=O)OCC(CC)CC)CC1)CC(O)CCCCCCC(=O)OCCCC (centres unmarked) [Compound 12]	8.06	4.86
CCC(CC)COC(=O)CCCCCCC(O)CN(CCCSSCCN1CCN(CCOC(=O)CCCN(CC(O)CCCC(=O)OC(CC)CC)CC(O)CCCC(=O)OC(CC)CC)CC1)CC(O)CCCCCCC(=O)OCC(CC)CC (centres unmarked) [Compound 46, Bis(2-ethylbutyl) 9,9′-((3-((2-(4-(2-((4-(bis(2-hydroxy-6-oxo-6-(pentan-3-yloxy)hexyl)-amino)butanoyl)oxy)ethyl)piperazin-1-yl)ethyl)disulfaneyl)propyl)azanediyl)bis(8-hydroxynonanoate)]	12.38	5.78
CCC(CC)COC(=O)CCCCCCC(O)CN(CCCC(=O)OCCN1CCN(CCSSCCCCN(CC(O)CCCCC(=O)OCC(CC)CC)CC(O)CCCCC(=O)OCC(CC)CC)CC1)CC(O)CCCCCCC(=O)OCC(CC)CC (centres unmarked) [Compound 50, Bis(2-ethylbutyl) 9,9′-((4-(2-(4-(2-((4-(bis(7-(2-ethylbutoxy)-2-hydroxy-7-oxoheptyl)amino)-butyl)disulfaneyl)ethyl)piperazin-1-yl)ethoxy)-4-oxobutyl)azanediyl)bis(8-hydroxynonanoate)]	14.94	8.87
CCC(CC)COC(=O)CCCCCCC(O)CN(CCCC(=O)OCCN1CCN(CCSSCCCN(CC(O)CCCCCCC(=O)OCCC(C)C)CC(O)CCCCCCC(=O)OCCC(C)C)CC1)CC(O)CCCCCCC(=O)OCC(CC)CC (centres unmarked) [Compound 29, Bis(2-ethylbutyl) 9,9′-((4-(2-(4-(2-((3-(bis(2-hydroxy-9-(isopentyloxy)-9-oxononyl)-amino)propyl)disulfaneyl)ethyl)piperazin-1-yl)ethoxy)-4-oxobutyl)azanediyl)bis(8-hydroxynonanoate)]	10.01	4.93
CCCCOC(=O)CCCCCCC(O)CN(CCCCC(=O)OCCN1CCN(CCSSCCCCN(CC(O)CCCCCCC(=O)OCC(CC)CC)CC(O)CCCCCCC(=O)OCC(CC)CC)CC1)CC(O)CCCCCCC(=O)OCCCC (centres unmarked) [Compound 53, Dibutyl 9,9′-((5-(2-(4-(2-((4-(bis(9-(2-ethylbutoxy)-2-hydroxy-9-oxononyl)amino)-butyl)disulfaneyl)ethyl)piperazin-1-yl)ethoxy)-5-oxopentyl)azanediyl)bis(8-hydroxynonanoate)]	9.07	4.66
